Key:
Format in all cases: in vivo
[1] = test system: Alopecurus myosuroides (ALOMY); test: Pre-emergence herbicidal glasshouse test on Alopecurus myosuroides; settings: pre-emergence; 1000 g/h; evaluated after 13 days
Procedure, shortened: (§1)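 Pre-emergence treatment came one day after sowing, post-emergence treatment after eight days' growth; both used 1000 g/h in a 0.5% Tween 20 acetone/water vehicle. Percent damage, scored 1–5, was read 13 days later.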

[2] = test system: Setaria faberi (SETFA); test: Pre-emergence herbicidal glasshouse test on Setaria faberi; settings: pre-emergence; 1000 g/h; evaluated after 13 days
Procedure, shortened: as §1

[3] = test system: Echinochloa crus-galli (ECHCG); test: Pre-emergence herbicidal glasshouse test on Echinochloa crus-galli; settings: pre-emergence; 1000 g/h; evaluated after 13 days
Procedure, shortened: as §1

[4] = test system: Solanum nigrum (SOLNI); test: Pre-emergence herbicidal glasshouse test on Solanum nigrum; settings: pre-emergence; 1000 g/h; evaluated after 13 days
Procedure, shortened: as §1

[5] = test system: Amaranthus retoflexus (AMARE); test: Pre-emergence herbicidal glasshouse test on Amaranthus retoflexus; settings: pre-emergence; 1000 g/h; evaluated after 13 days
Procedure, shortened: as §1

[6] = test system: Ipomoea hederacea (IPOHE); test: Pre-emergence herbicidal glasshouse test on Ipomoea hederacea; settings: pre-emergence; 1000 g/h; evaluated after 13 days
Procedure, shortened: as §1

[7] = test system: Alopecurus myosuroides (ALOMY); test: Post-emergence herbicidal glasshouse test on Alopecurus myosuroides; settings: post-emergence; 1000 g/h; evaluated after 13 days
Procedure, shortened: as §1

[8] = test system: Setaria faberi (SETFA); test: Post-emergence herbicidal glasshouse test on Setaria faberi; settings: post-emergence; 1000 g/h; evaluated after 13 days
Procedure, shortened: as §1

[9] = test system: Echinochloa crus-galli (ECHCG); test: Post-emergence herbicidal glasshouse test on Echinochloa crus-galli; settings: post-emergence; 1000 g/h; evaluated after 13 days
Procedure, shortened: as §1

[10] = test system: Solanum nigrum (SOLNI); test: Post-emergence herbicidal glasshouse test on Solanum nigrum; settings: post-emergence; 1000 g/h; evaluated after 13 days
Procedure, shortened: as §1

[11] = test system: Amaranthus retoflexus (AMARE); test: Post-emergence herbicidal glasshouse test on Amaranthus retoflexus; settings: post-emergence; 1000 g/h; evaluated after 13 days
Procedure, shortened: as §1

[12] = test system: Ipomoea hederacea (IPOHE); test: Post-emergence herbicidal glasshouse test on Ipomoea hederacea; settings: post-emergence; 1000 g/h; evaluated after 13 days
Procedure, shortened: as §1

Row | Structure (SMILES) | PRE Application ALOMY herbicidal damage (five point scale) [1] | PRE Application SETFA herbicidal damage (five point scale) [2] | PRE Application ECHCG herbicidal damage (five point scale) [3] | PRE Application SOLNI herbicidal damage (five point scale) [4] | PRE Application AMARE herbicidal damage (five point scale) [5] | PRE Application IPOHE herbicidal damage (five point scale) [6] | POST Application ALOMY herbicidal damage (five point scale) [7] | POST Application SETFA herbicidal damage (five point scale) [8] | POST Application ECHCG herbicidal damage (five point scale) [9] | POST Application SOLNI herbicidal damage (five point scale) [10] | POST Application AMARE herbicidal damage (five point scale) [11] | POST Application IPOHE herbicidal damage (five point scale) [12]
1 | CCn1ncc(-c2cc3cccnc3nc2C(F)(F)F)c(O)c1=O [Compound 5.001] | 5 (5=80-100% damage) | 5 (5=80-100% damage) | 5 (5=80-100% damage) | 5 (5=80-100% damage) | 5 (5=80-100% damage) | 5 (5=80-100% damage) | 5 (5=80-100% damage) | 5 (5=80-100% damage) | 5 (5=80-100% damage) | 5 (5=80-100% damage) | 5 (5=80-100% damage) | 5 (5=80-100% damage)
2 | Cc1cc(C)c2cc(-c3cnn(C)c(=O)c3O)c(C(F)(F)F)nc2n1 [Compound 5.002] | 1 (1=0-19% damage) | 1 (1=0-19% damage) | 2 (2=20-39% damage) | 1 (1=0-19% damage) | 5 (5=80-100% damage) | 3 (3=40-59% damage) | 1 (1=0-19% damage) | 2 (2=20-39% damage) | 3 (3=40-59% damage) | 5 (5=80-100% damage) | 5 (5=80-100% damage) | 5 (5=80-100% damage)
3 | Cc1cc(-c2cnn(C)c(=O)c2O)c(=O)n(-c2ccccc2)c1 [Compound 6.001] | 1 (1=0-19% damage) | 1 (1=0-19% damage) | 1 (1=0-19% damage) | 1 (1=0-19% damage) | 1 (1=0-19% damage) | 1 (1=0-19% damage) | 3 (3=40-59% damage) | 3 (3=40-59% damage) | 5 (5=80-100% damage) | 5 (5=80-100% damage) | 5 (5=80-100% damage) | 1 (1=0-19% damage)
4 | Cc1cc(-c2cnn(C)c(=O)c2O)c(=O)n(-c2ccsc2)c1 [Compound 6.002] | 1 (1=0-19% damage) | 1 (1=0-19% damage) | 1 (1=0-19% damage) | 5 (5=80-100% damage) | 5 (5=80-100% damage) | 2 (2=20-39% damage) | 1 (1=0-19% damage) | 1 (1=0-19% damage) | 1 (1=0-19% damage) | 3 (3=40-59% damage) | 4 (4=60-79% damage) | 2 (2=20-39% damage)
5 | CCCCn1cc(C)cc(-c2cnn(C)c(=O)c2O)c1=O [Compound 6.003] | 1 (1=0-19% damage) | 1 (1=0-19% damage) | 1 (1=0-19% damage) | 1 (1=0-19% damage) | 1 (1=0-19% damage) | 1 (1=0-19% damage) | 2 (2=20-39% damage) | 2 (2=20-39% damage) | 4 (4=60-79% damage) | 4 (4=60-79% damage) | 4 (4=60-79% damage) | 2 (2=20-39% damage)
6 | Cn1ncc(-n2cccc(-c3ccc(C(F)(F)F)cc3)c2=O)c(O)c1=O [Compound 7.001] | 1 (1=0-19% damage) | 1 (1=0-19% damage) | 1 (1=0-19% damage) | 1 (1=0-19% damage) | 1 (1=0-19% damage) | 1 (1=0-19% damage) | 2 (2=20-39% damage) | 3 (3=40-59% damage) | 4 (4=60-79% damage) | 4 (4=60-79% damage) | 3 (3=40-59% damage) | 2 (2=20-39% damage)
7 | COc1cccc(-c2c(C(F)(F)F)ccn(-c3cnn(C)c(=O)c3O)c2=O)c1 [Compound 7.003] | 4 (4=60-79% damage) | 4 (4=60-79% damage) | 4 (4=60-79% damage) | 5 (5=80-100% damage) | 5 (5=80-100% damage) | 3 (3=40-59% damage) | 4 (4=60-79% damage) | 3 (3=40-59% damage) | 5 (5=80-100% damage) | 5 (5=80-100% damage) | 5 (5=80-100% damage) | 3 (3=40-59% damage)
8 | Cn1ncc(-n2ccc(C(F)(F)F)c(-c3cccc(OC(F)(F)F)c3)c2=O)c(O)c1=O [Compound 7.005] | 4 (4=60-79% damage) | 4 (4=60-79% damage) | 5 (5=80-100% damage) | 5 (5=80-100% damage) | 5 (5=80-100% damage) | 1 (1=0-19% damage) | 4 (4=60-79% damage) | 4 (4=60-79% damage) | 5 (5=80-100% damage) | 5 (5=80-100% damage) | 5 (5=80-100% damage) | 4 (4=60-79% damage)
9 | Cc1ccc(-c2c(C(F)(F)F)ccn(-c3cnn(C)c(=O)c3O)c2=O)cc1 [Compound 7.006] | 3 (3=40-59% damage) | 4 (4=60-79% damage) | 5 (5=80-100% damage) | 5 (5=80-100% damage) | 5 (5=80-100% damage) | 2 (2=20-39% damage) | 3 (3=40-59% damage) | 3 (3=40-59% damage) | 5 (5=80-100% damage) | 5 (5=80-100% damage) | 4 (4=60-79% damage) | 3 (3=40-59% damage)
10 | Cc1ccc(F)cc1-c1c(C(F)(F)F)ccn(-c2cnn(C)c(=O)c2O)c1=O [Compound 7.007] | 5 (5=80-100% damage) | 5 (5=80-100% damage) | 5 (5=80-100% damage) | 5 (5=80-100% damage) | 5 (5=80-100% damage) | 4 (4=60-79% damage) | 5 (5=80-100% damage) | 5 (5=80-100% damage) | 5 (5=80-100% damage) | 5 (5=80-100% damage) | 5 (5=80-100% damage) | 5 (5=80-100% damage)

— patent publication US9693556B2, “Herbicidal pyridazinone derivatives” (SYNGENTA LIMITED, priority 2011, dated 2017)
